Assay results as given in BindingDB's records for doi:10.1021/jm00003a002 (University of Minnesota, 1995).

Experiments:
[1] = The opioid receptor affinity(Ki) was evaluated by competition with [3H]-DPDPE (delta 1) on guinea pig brain membranes
[2] = The opioid receptor affinity(Ki) was evaluated by competition with [3H]DSLET (delta 2) on guinea pig brain membranes

O=C(O)C[C@@H](NC(=O)c1cccc2c3c([nH]c12)[C@@H]1Oc2c(O)ccc4c2C12CCN(CC1CC1)C(C4)[C@]2(O)C3)C(=O)O (stereo partly drawn) [2-[22-cyclopropylmethyl-2,16-dihydroxy-(2S,13R)-14-oxa-11,22-diazaheptacyclo[13.9.1.01,13.02,21.04,12.05,10.019,25]pentacosa-4(12),5(10),6,8,15(25),16,18-heptaen-9-ylcarboxamido]-(2R)-butanedioic acid]
Ki [1]: 0.14 nM
Ki [2]: 0.41 nM

N=C(N)NCCC[C@@H](NC(=O)c1cccc2c3c([nH]c12)[C@@H]1Oc2c(O)ccc4c2C12CCN(CC1CC1)C(C4)[C@]2(O)C3)C(=O)O (stereo partly drawn) [5-amino(imino)methylamino-2-[22-cyclopropylmethyl-2,16-dihydroxy-(2S,13R)-14-oxa-11,22-diazaheptacyclo[13.9.1.01,13.02,21.04,12.05,10.019,25]pentacosa-4(12),5(10),6,8,15(25),16,18-heptaen-9-ylcarboxamido]-(2R)-pentanoic acid]
Ki [1]: 0.16 nM
Ki [2]: 0.083 nM

NCCC[C@@H](NC(=O)c1cccc2c3c([nH]c12)[C@@H]1Oc2c(O)ccc4c2C12CCN(CC1CC1)C(C4)[C@]2(O)C3)C(=O)O (stereo partly drawn) [5-amino-2-[22-cyclopropylmethyl-2,16-dihydroxy-(2S,13R)-14-oxa-11,22-diazaheptacyclo[13.9.1.01,13.02,21.04,12.05,10.019,25]pentacosa-4(12),5(10),6,8,15(25),16,18-heptaen-9-ylcarboxamido]-(2R)-pentanoic acid]
Ki [1]: 0.18 nM
Ki [2]: 0.015 nM

NCCCC[C@@H](NC(=O)c1cccc2c3c([nH]c12)[C@@H]1Oc2c(O)ccc4c2C12CCN(CC1CC1)C(C4)[C@]2(O)C3)C(=O)O (stereo partly drawn) [6-amino-2-[22-cyclopropylmethyl-2,16-dihydroxy-(2S,13R)-14-oxa-11,22-diazaheptacyclo[13.9.1.01,13.02,21.04,12.05,10.019,25]pentacosa-4(12),5(10),6,8,15(25),16,18-heptaen-9-ylcarboxamido]-(2R)-hexanoic acid]
Ki [1]: 0.3 nM
Ki [2]: 0.75 nM

O=C(O)c1cccc2c3c([nH]c12)[C@@H]1Oc2c(O)ccc4c2C12CCN(CC1CC1)C(C4)[C@]2(O)C3 (stereo partly drawn) [22-cyclopropylmethyl-2,16-dihydroxy-(2S,13R)-14-oxa-11,22-diazaheptacyclo[13.9.1.01,13.02,21.04,12.05,10.019,25]pentacosa-4(12),5(10),6,8,15(25),16,18-heptaene-9-carboxylic acid]
Ki [1]: 0.013 nM
Ki [2]: 0.016 nM

O=C(O)CNC(=O)c1cccc2c3c([nH]c12)[C@@H]1Oc2c(O)ccc4c2C12CCN(CC1CC1)C(C4)[C@]2(O)C3 (stereo partly drawn) [32+/-82-[22-cyclopropylmethyl-2,16-dihydroxy-(2S,13R)-14-oxa-11,22-diazaheptacyclo[13.9.1.01,13.02,21.04,12.05,10.019,25]pentacosa-4(12),5(10),6,8,15(25),16,18-heptaen-9-ylcarboxamido]acetic acid]
Ki [1]: 0.005 nM
